Test results as given in US20210246115A1 (Bioimics AB, priority 2017, published 2021).
Counter-ions that a name gives are not always drawn.

How the values were obtained:
[1] = tested on: Escherichia coli (ATCC25922); test: MIC, broth microdilution (CLSI), Escherichia coli; details: Escherichia coli, ATCC25922, read-out: E. coli ATCC 25922 MIC, Table XIII
[2] = tested on: E. coli RNase P RNA, M1 RNA; test: Inhibition of bacterial RNase P activity, IC50 determination (cleavage of pATSerUG by M1 RNA); type: biochemical; details: NI: No inhibition
[3] = tested on: Staphylococcus aureus (ATCC25923); test: MIC, broth microdilution (CLSI), Staphylococcus aureus ATCC25923; details: Staphylococcus aureus, ATCC25923, read-out: S. aureus ATCC 25923 MIC

SMILES | MIC [1] [µg/mL] | IC50 [2] [µM] | MIC [3] [µg/mL]
Cc1cccc(C(CC(=O)NC2CCC(NC(=N)N)CC2)c2cn(CC3CCCCC3)c3ccccc23)c1 (stereo not drawn) [Compound 201, 3-(1-(cyclohexylmethyl)-1H-indol-3-yl)-N-(4-guanidinocyclohexyl)-3-(m-tolyl) propanamide hydrochloride salt] | 75 | 15.4 | 2
Cc1cccc(C(CC(=O)NCC2CNCCO2)c2cn(CC3CCCCC3)c3ccccc23)c1.Cl (stereo not drawn) [Compound 280, 3-(1-(cyclohexylmethyl)-1H-indol-3-yl)-N-(morpholin-2-ylmethyl)-3-(m-tolyl)propanamide hydrochloride salt] | 131 | 103 | 16
Cl.NC1CCC(NC(=O)CCc2cn(CC3CCCCC3)c3ccc(-c4ccccc4Cl)cc23)CC1 [Compound 239, N-((1S,4S)-4-aminocyclohexyl)-3-(5-(2-chlorophenyl)-1-(cyclohexylmethyl)-1H-indol-3-yl)propanamide hydrochloride salt] | 271 | 2.9 | 4
Cl.N[C@H]1CC[C@H](NC(=O)CC(c2cn(CC3CCCCC3)c3ccccc23)C2CCCCC2)CC1 (stereo partly drawn) [Compound 162, N-((1R,4R)-4-aminocyclohexyl)-3-cyclohexyl-3-(1-(cyclohexylmethyl)-1H-indol-3-yl)propanamide hydrochloride salt] | 32 | 9 | 4
N[C@H]1CC[C@@H](NC(=O)c2coc(CN(CCc3c[nH]c4ccccc34)Cc3ccc(F)cc3)n2)CC1 [Compound 61, 2-(((2-(1H-indol-3-yl)ethyl)(4-fluorobenzyl)amino)methyl)-N-((1s,4s)-4-aminocyclohexyl) oxazole-4-carboxamide hydrochloride salt] | 251 | 182 | 63
FC1(F)CCC(Cn2cc(CCCNC3CCNCC3)c3cc(Br)ccc32)CC1 [Compound 295, N-(3-(5-bromo-1-((4,4-difluorocyclohexyl)methyl)-1H-indol-3-yl)propyl)piperidin-4-amine hydrochloride salt] | 17 | 50 | 9
O=C(CC(c1cn(CC2CCCCC2)c2ccccc12)C1CCNCC1)NCCC1CCNCC1 (stereo not drawn) [Compound 145, 3-(1-(cyclohexylmethyl)-1H-indol-3-yl)-3-(piperidin-4-yl)-N-(2-(piperidin-4-yl)ethyl)propanamide hydrochloride salt] | > 512 | 1480 | 512
Cc1cccc(C(CC(=O)NC2CCCC(N)C2)c2cn(CC3CCCCC3)c3ccccc23)c1.Cl (stereo not drawn) [Compound 178, N-(3-aminocyclohexyl)-3-(1-(cyclohexylmethyl)-1H-indol-3-yl)-3-(m-tolyl)propanamide hydrochloride salt] | 65 | 20 | 8
O=C(CC(c1cn(CC2CCCCC2)c2ccccc12)C1CCNCC1)NC1CCNCC1 (stereo not drawn) [Compound 106, 3-(1-(cyclohexylmethyl)-1H-indol-3-yl)-N,3-di(piperidin-4-yl)propanamide hydrochloride salt] | 512 | 1220 | 512
Cc1cccc(C(CC(=O)NC2CCNCC2)c2cn(CC3CCC(F)(F)CC3)c3ccc(Br)cc23)c1.Cl (stereo not drawn) [Compound 287, 3-(5-bromo-1-((4,4-difluorocyclohexyl)methyl)-1H-indol-3-yl)-N-(piperidin-4-yl)-3-(m-tolyl)propanamide hydrochloride salt] | 78 | 15 | 10
Cc1cccc(C(CC(=O)N[C@H]2CCCC[C@@H]2N)c2cn(CC3CCCCC3)c3ccccc23)c1.Cl (stereo partly drawn) [Compound 189, N-((1S,2S)-2-aminocyclohexyl)-3-(1-(cyclohexylmethyl)-1H-indol-3-yl)-3-(m-tolyl)propanamide hydrochloride salt] | > 512 | 16 | 16
Cl.N[C@H]1CC[C@H](NC(=O)c2cn(CC3CCCCC3)c3ccc(Br)cc23)CC1 [Compound 268, N-((1R,4R)-4-aminocyclohexyl)-5-bromo-1-(cyclohexylmethyl)-1H-indole-3-carboxamide hydrochloride salt] | 30 | 59 | 15
N[C@H]1CC[C@H](NC(=O)CC(c2cn(CC3CCCCC3)c3ccccc23)C2CCNCC2)CC1 (stereo partly drawn) [Compound 107, N-((1r,4r)-4-aminocyclohexyl)-3-(1-(cyclohexylmethyl)-1H-indol-3-yl)-3-(piperidin-4-yl)propanamide hydrochloride salt] | > 512 | 1330 | 512
Cc1cccc(C(CC(=O)NC2CCC(CN)CC2)c2cn(CC3CCCCC3)c3ccccc23)c1.Cl (stereo not drawn) [Compound 182, N-((1r,4r)-4-(aminomethyl)cyclohexyl)-3-(1-(cyclohexylmethyl)-1H-indol-3-yl)-3-(m-tolyl)propanamide hydrochloride salt] | > 512 | 17 | 17
Cc1cccc(C(CC(=O)NC2CCC(N)CC2)c2cn(CC3CCCCC3)c3ccc(O)cc23)c1.Cl [Compound 165, N-((1S,4S)-4-aminocyclohexyl)-3-(1-(cyclohexylmethyl)-5-hydroxy-1H-indol-3-yl)-3-(m-tolyl)propanamide hydrochloride salt] | 67 | 18 | 34
Cc1cccc(C(CC(=O)NC2CCNCC2)c2cn(Cc3ccccc3)c3ccccc23)c1.Cl (stereo not drawn) [Compound 80, 3-(1-benzyl-1H-indol-3-yl)-N-(piperidin-4-yl)-3-(m-tolyl)propanamide hydrochloride salt] | 64 | 41 | 32
Cl.N[C@H]1CC[C@H](NC(=O)CCc2cn(CC3CCCCC3)c3ccc(Br)cc23)CC1 [Compound 156, N-((1R,4R)-4-aminocyclohexyl)-3-(5-bromo-1-(cyclohexylmethyl)-1H-indol-3-yl)propanamide hydrochloride salt] | 32 | 16 | 16
Cc1cccc(C(CC(=O)N(C)C2CCNCC2)c2cn(CC3CCCCC3)c3ccccc23)c1.Cl (stereo not drawn) [Compound 279, 3-(1-(cyclohexylmethyl)-1H-indol-3-yl)-N-methyl-N-(piperidin-4-yl)-3-(m-tolyl)propanamide hydrochloride salt] | 65 | 34 | 8
Cl.NC1CCC(NC(=O)Cc2cn(CC3CCCCC3)c3ccc(-c4ccccc4OC(F)(F)F)cc23)CC1 [Compound 234, N-((1S,4S)-4-aminocyclohexyl)-2-(1-(cyclohexylmethyl)-5-(2-(trifluoromethoxy)phenyl)-1H-indol-3-yl)acetamide hydrochloride salt] | 289 | 7 | 9
Cc1cccc(C(CC(=O)N[C@H]2CC[C@H](N)CC2)c2cn(CC3CC3)c3ccccc23)c1.Cl (stereo partly drawn) [Compound 124, N-((1R,4R)-4-aminocyclohexyl)-3-(1-(cyclopropylmethyl)-1H-indol-3-yl)-3-(m-tolyl)propanamide hydrochloride salt] | 256 | 149 | 128
Cc1cccc(C(CC(=O)NC2CCNCC2)c2cn(CC3CCCC3)c3ccccc23)c1.Cl (stereo not drawn) [Compound 112, 3-(1-(cyclopentylmethyl)-1H-indol-3-yl)-N-(piperidin-4-yl)-3-(m-tolyl)propanamide hydrochloride salt] | 64 | 68 | 16
COc1cc(OC)cc(C(CC(=O)N[C@H]2CC[C@H](N)CC2)c2cn(CC3CCCCC3)c3ccccc23)c1.Cl (stereo partly drawn) [Compound 127, N-((1R,4R)-4-aminocyclohexyl)-3-(1-(cyclohexylmethyl)-1H-indol-3-yl)-3-(3,5-dimethoxyphenyl) propanamide hydrochloride salt] | > 512 | 19 | 512
Cc1cccc(C(CC(=O)NC2CCC(N)CC2)c2cn(CC34CC5CC(CC(C5)C3)C4)c3ccccc23)c1.Cl [Compound 223, 3-(1-(((1S,3S)-adamantan-1-yl)methyl)-1H-indol-3-yl)-N-((1s,4s)-4-aminocyclohexyl)-3-(m-tolyl)propanamide hydrochloride salt] | > 512 | 8 | 2
Cl.N[C@H]1CC[C@H](NC(=O)CCc2nn(CC3CCCCC3)c3ccc(Br)cc23)CC1 [Compound 270, N-((1r,4r)-4-aminocyclohexyl)-3-(5-bromo-1-(cyclohexylmethyl)-1H-indazol-3-yl)propanamide hydrochloride salt] | 127 | 135 | 64
Cc1cccc(C(CC(=O)N[C@H]2CC[C@H](N)CC2)c2cn(CC3CCCCC3)c3ccc(Br)cc23)c1.Cl (stereo partly drawn) [Compound 126, N-((1R,4R)-4-aminocyclohexyl)-3-(5-bromo-1-(cyclohexylmethyl)-1H-indol-3-yl)-3-(m-tolyl)propanamide hydrochloride salt] | > 512 | 5.8 | 4
Cl.N[C@H]1CC[C@H](NC(=O)CC(c2cn(CC3CCCCC3)c3ccccc23)C2CCOCC2)CC1 (stereo partly drawn) [Compound 132, N-((1R,4R)-4-aminocyclohexyl)-3-(1-(cyclohexylmethyl)-1H-indol-3-yl)-3-(tetrahydro-2H-pyran-4-yl)propanamide hydrochloride salt] | > 512 | 191 | 128
Cc1cccc(C(CC(=O)NCC2CCC(N)CC2)c2cn(CC3CCCCC3)c3ccccc23)c1.Cl [Compound 180, N-(((1R,4R)-4-aminocyclohexyl)methyl)-3-(1-(cyclohexylmethyl)-1H-indol-3-yl)-3-(m-tolyl)propanamide hydrochloride salt] | 67 | 18 | 17
